{"source": "patent US20080241919A1", "about": "“Defined media for pluripotent stem cell culture” (The Burnham Institute of Medical Research, priority 2003, published 2008)", "key": {"[1]": {"tested_on": "human embryonic stem cells (hESCs)", "experiment": "Undifferentiated growth of hESCs on human foreskin fibroblast (HFF) feeder layer", "format": "cell-based", "method": "Next, in order to establish a culture system that was free of non-human animal products, the human foreskin fibroblast (HFF) cell line Hs27 was used as a feeder layer. The human foreskin fibroblast (HFF) cell line, Hs27 (ATCC; Manassas, Va.; www.atcc.org) was expanded to create a master bank of frozen cells. The HFFs were plated in gelatin pre-coated 60 mm plates or 6-well plates at a density of 1.7×10^4/cm^2 and inactivated by irradiating at 50 Gy using a ^137Cs gamma-irradiator before being used as feeder cells. Undifferentiated hESCs, although originally maintained on MEFs, were transferred to plates of HFFs that had been mitotically inactivated by gamma irradiation. In the first attempts to transfer the hESCs to the human feeder layers, far more differentiated cells compared to those grown on MEFs were observed. When dealing with hESCs, the undifferentiated state was assessed by three criteria: (a) distinctive and defining stage-specific morphology and size; (b) the expression of immunomarkers associated with pluripotency; and (c) the absence of immunomarkers associated with lineage commitment.\nIn this media, less than 80% undifferentiated hESC colonies were observed on HFF feeders on every passage."}, "p38 MAPK": {"tested_on": "p38 MAPK", "experiment": "p38 MAPK phosphorylation in hESCs (Western blot, immunocytochemistry)", "format": "cell-based, human", "excerpt": "(e) bFGF is essential for maintaining hESCs in a healthy undifferentiated state, in part through MAPK signaling […]. In media lacking bFGF, hESC colonies maintained on Matrigel-coated plates have a completely differentiated morphology upon the first passage [A]. To examine the signaling pathways that might be mediated by bFGF, the phosphorylation level of p38 MAPK in undifferentiated (in the presence of bFGF [+bFGF]) and differentiated (in the absence of bFGF [−bFGF]) hESCs was examined. […] White arrows delineate the edge of an hESC colony.\nTo help understand the molecular mechanisms underlying bFGF's role in maintaining undifferentiated growth of hESCs, the mitogen-activated protein kinase (MAPK) signaling pathway was examined."}, "[2]": {"tested_on": "human embryonic stem cells (hESCs)", "experiment": "Medium component requirement assay, hESCs on laminin/collagen-coated plates for seven days", "format": "cell-based", "settings": "media that contained only the named growth factor", "method": "(a) Media containing bFGF, insulin, and ascorbic acid sustain the healthy undifferentiated growth of hESCs on laminin/collagen-coated plates. Insulin (20 μg/ml), transferrin (8 μg/ml), albumin (for example, the commercial product known as AlbuMAXI) (10 mg/ml), and ascorbic acid (50 μg/ml) were added to a base medium that consisted of 100% DMEM/F-12 with 20 ng/ml bFGF, 2 mM L-alanyl-L-glutamine, 1×MEM essential amino acids solution, 1×MEM non-essential amino acids solution, and 100 μM β-mercaptoethanol. The degree of differentiation was judged by morphology of the colonies and Oct-4 expression. […] (red). […] However, if ascorbic acid was omitted from the media [D, H, L] […] White arrows in all panels delineate the edge of an hESC colony. The area delineated by the white square in [A], [E], and [I] indicates the approximate area that is visualized at higher magnification in [B, C], [F, G], and [J, K], respectively. [C], [G], and [K] is the image in [B], [F], and [J], respectively, merged with DAPI staining of their nuclei (blue).\n(b) When either bFGF or insulin was omitted from the media, hESC colonies appeared to differentiate completely under the feeder- and serum-free conditions. […] The distinct growth effects of insulin and bFGF were further accentuated in media lacking ascorbic acid [C, F] (“NO Ascorbic Acid”). In the absence of ascorbic acid and in media that contained only insulin as the growth factor [C] (phase) (“NO Ascorbic Acid”), slower growth of the differentiated hESCs was observed (compare [A, B] to [C]). In ascorbic-acid-lacking media that contained bFGF as the only growth factor [F] […] White arrows in all panels delineate the edge of hESC colonies.\nHaving determined that substantial numbers of undifferentiated hESCs could be maintained over long periods in feeder-free environments using the bFGF-supplemented media described above, the necessity of other components in the medium to maintain hESCs in an undifferentiated state was next examined. “Knockout Serum Replacement” contains insulin, transferrin, ascorbic acid, amino acids, and AlbuMAX (a chromatographically-purified lipid-rich bovine serum albumin [BSA] with low IgG content, but nevertheless a xeno-derived product). Accordingly, whether insulin, transferrin, BSA, and ascorbic acid were essential components was assessed, in combination with bFGF, for maintaining hESCs in an undifferentiated state. The serum replacement components insulin (20 μg/ml), transferrin (8 μg/ml), albumin (AlbuMAX) (10 mg/ml), and ascorbic acid (50 μg/ml) were added to a base medium that consisted of DMEM/F-12 or KO-DMEM with bFGF (20 ng/ml), L-alanyl-L-glutamine or L-glutamine (2 mM), MEM essential amino acids solution (1×), MEM nonessential amino acids solution (1×), and β-mercaptoethanol (100 μM). To assay for the differentiation-forestalling activity of each of these components, undifferentiated hESCs were seeded on laminin/collagen-coated plates and cultivated for seven days in media containing one or more of the individual components. The degree of differentiation of the colonies was judged by defining morphology and Oct-4 expression.\nWhen either bFGF or insulin was omitted from the media, more than 90% of the colonies appeared to differentiate completely within the first passage, as indicated by their differentiated morphology (FIG. 2b, A,B,D,E), their complete loss of Oct-4 expression, and their expression of the cell surface marker SSEA-1 (FIG. 2c, B,C). […] The different effects of insulin and bFGF were accentuated further in media lacking ascorbic acid. In the absence of ascorbic acid and in media containing only insulin, the growth of differentiated hESCs was simply slower (FIG. 2b, C). […] Although albumin and transferrin are not crucial components for sustaining the undifferentiated growth of hESCs, they might abet survival or maintenance of a normal colony shape."}}, "data": [{"substance": "bFGF: basic fibroblast growth factor, growth factor added to the defined hESC media", "values": [{"measurement": "size of hESC colonies on HFFs", "setting": "[1]; bFGF increased to 20 ng/ml from 4 ng/ml", "result": "significantly larger"}, {"measurement": "number of passages undifferentiated hESCs maintained on HFF feeder layers", "setting": "[1]; medium with bFGF 20 ng/ml", "result": "more than 50 passages"}, {"measurement": "time undifferentiated hESCs maintained on HFF feeder layers", "setting": "[1]; medium with bFGF 20 ng/ml", "result": "over 12 months"}, {"measurement": "undifferentiated hESC colonies on HFF feeders on every passage", "setting": "[1]; medium with bFGF 20 ng/ml, 20% knockout Serum Replacement", "result": "less than 80%"}, {"measurement": "large differentiated cells displaying high levels of p38 phosphorylation", "setting": "p38 MAPK; absence of bFGF", "result": "about 5%"}, {"measurement": "p38 MAPK form in undifferentiated hESCs by immunocytochemistry", "setting": "p38 MAPK; defined media containing 20 ng/ml bFGF", "result": "unphosphorylated inactive form of p38 MAPK was present robustly"}, {"measurement": "phosphorylation levels of p38 MAPK by Western blot", "setting": "p38 MAPK; increased bFGF concentrations", "result": "no changes"}, {"measurement": "cell morphology in differentiated colonies", "setting": "[2]", "result": "elliptically-shaped cells"}]}]}
